Laboratory results from US20230302022A1, “PREVENTING OR MITIGATING CHEMOTHERAPY INDUCED ALOPECIA USING VITAMIN D” (priority 2016, published 2023).
“Also recorded” adds a separate entry of the source.

Tests used:
[1] = system: NIH-3T3 (immortalized fibroblast); assay: Cell growth / viability assay, NIH-3T3; assay type: cell-based
Protocol: The drug treatment period was usually three days. At the end of the three days, the background OD of the 96-well plate was read at 280 nm, before 20 μL of the “Substrate Cell Titer 96 Aqueous One Solution Reagent” (Promega) was added to each well. […] The net OD increase was calculated by subtracting the pre-substrate OD reading. The impact of the drug on the cells was calculated by comparing the OD at different concentrations in relation to the OD of the control wells (without the drug). The results of the Net OD as a function of drug concentration was plotted and used to determine ED50 values.

[2] = system: Long Evans rats; assay: CIA in chloroleukemic Long Evans rats receiving multi-course chemotherapy; assay type: in vivo, rat; design: protection from CIA: concentration or dose not given beside the values; conditions: for protection from CIA: both cycles
[3] = system: PaCa2 (pancreatic carcinoma); assay: Cell growth / viability assay, PaCa2; assay type: cell-based
Protocol: (§1) The drug treatment period was usually three days. At the end of the three days, the background OD of the 96-well plate was read at 280 nm, before 20 μL of the “Substrate Cell Titer 96 Aqueous One Solution Reagent” (Promega) was added to each well. The plate was returned to the 37° C. incubator, and its OD at 490 nm was read each hour until an OD of approximately 1.5 was reached. The net OD increase was calculated by subtracting the pre-substrate OD reading.
(§2) The impact of the drug on the cells was calculated by comparing the OD at different concentrations in relation to the OD of the control wells (without the drug).
(§3) Then these pretreated cells were utilized to set up the cell based assay.

[4] = system: Long Evans and Sprague Dawley rats; assay: Chemotherapy-induced alopecia (CIA) in the neonatal rat, topical calcitriol formulation; assay type: in vivo
Protocol: Specifically, Long Evans and Sprague Dawley rats with pups were purchased from Harlan Laboratories, Inc. They were housed and fed according to applicable animal handling rules and regulations. Pups were allowed to acclimate for 48 hours prior to the start of experiments. […] Rats were isolated from their littermates and mother for 6-hour periods of time. Subsequently, the treated area was cleaned with soap and water and pups were returned to their litters. On day 13, rats either received etoposide (1.5 mg/kg daily for 3 days) or cyclophosphamide (CTX) (37.5 mg/kg once) or combination cyclophosphamide (35 mg/kg once) and doxorubicin (2.5 mg/kg daily for 3 days). All chemotherapies were purchased from Sigma and were given intraperitoneally (i.p.) in a total volume of 0.1 mL. Alopecia was recorded 10 days after the last dose of chemotherapy.

[5] = system: patients; assay: Phase I study: chemotherapy-induced alopecia in patients; assay type: in vivo, human; conditions: patients at all dose levels, weeks 7 and 15 vs baseline
Excerpt: Photographic assessment will be performed using a Canon Power Shot G12 camera system to ensure standardization and uniformity among all enrolled patients. The following five views will be obtained at each photographic assessment: bilateral sides of head/scalp view, front of head/face view, back of head/scalp view, and top of head/scalp view. Additionally, close-up photographs will be taken at the same times points. […] Photographs will be standardized for lighting, camera angle, and position to the participants head. These assessments will be performed at the following time points: at baseline, weeks 7, 15, 27, and 54. Photographs for patients in each cohort representing baseline, and treatment weeks 7 and 15 will be presented blind to the study principle investigator after at least 3 patients have completed 15 weeks of treatment. Photographs will also be taken at week 27 and week 54 of the study but will be included in the final photographic assessment as secondary information. […]
Subjective record of hair and scalp. Alopecia will also be subjectively recorded through the patient self-reported diaries. […]
Each patient underwent PK analysis, adverse event monitoring, patient self-assessment diaries (1-10 scale), and blinded photographic assessments. […] Toxicity was determined on a weekly basis during Cycle 1 (i.e., the first 28 days of topical agent application) and subsequently every four weeks. […]

[6] = system: PC-3; assay: Cell viability assay, PC-3; assay type: cell-based; conditions: PC-3, 0.1 μg/mL calcitriol for two passages
Protocol: as §1, §2, §3

[7] = Long Evans rats, 0.2 μg total dose

C=C1/C(=C\C=C2/CCC[C@]3(C)[C@@H]([C@H](C)CCCC(C)(C)O)CC[C@@H]23)C[C@@H](O)C[C@@H]1O [Calcitriol, (5Z,7E)-9,10-secocholesta-5,7.10(19Hriene-1 a,33.25-triol]
effect of calcitriol on cell growth [1]: no significant growth promoting or growth inhibiting effects
effect of calcitriol on the cytotoxic effect of Doxorubicin [1]: did not appear to appreciably alter
ALOPECIA 0 (number of rats) ([2]; ADM, Paclitaxel and Etoposide, after First Round): 40
ALOPECIA 0 (number of rats) ([2]; ADM, Paclitaxel and Etoposide, after Second Round): 32
ALOPECIA 0 (number of rats) ([2]; CTX and Doxorubicin (ADM), after First Round): 40
ALOPECIA 0 (number of rats) ([2]; CTX and Doxorubicin (ADM), after Second Round): 20
ALOPECIA 0 (number of rats) ([2]; CTX, ADM and Cytarabine (ARA-C), after First Round): 40
ALOPECIA 0 (number of rats) ([2]; CTX, ADM and Cytarabine (ARA-C), after Second Round): 31
ALOPECIA 0 (number of rats) ([2]; CTX, Paclitaxel and Etoposide, after First Round): 40
ALOPECIA 0 (number of rats) ([2]; CTX, Paclitaxel and Etoposide, after Second Round): 33
ALOPECIA 0 (number of rats) ([2]; Cyclophosphamide (CTX), after First Round of Chemotherapy): 40
ALOPECIA 0 (number of rats) ([2]; Cyclophosphamide (CTX), after Second Round of Chemotherapy): 10
protection from CIA ([2]; cyclophosphamide and doxorubicin group): 100%
extent of alopecia (grade), all rats ([2]; cyclophosphamide and doxorubicin regimen, after the first round): did not exhibit any signs of alopecia
protection from CIA ([2]; cyclophosphamide group): 100%
extent of alopecia (grade), all rats ([2]; cyclophosphamide regimen, after the first round of chemotherapy): did not exhibit any signs of alopecia
protection from CIA ([2]; cyclophosphamide, doxorubicin and cytarabine group): 100%
extent of alopecia (grade), all rats ([2]; cyclophosphamide, doxorubicin and cytarabine regimen, after the first round): did not exhibit any signs of alopecia
protection from CIA ([2]; cyclophosphamide, paclitaxel and etoposide group): 100%
extent of alopecia (grade), all rats ([2]; cyclophosphamide, paclitaxel and etoposide regimen, after the first round): did not exhibit any signs of alopecia
protection from CIA ([2]; doxorubicin, paclitaxel and etoposide group): 100%
extent of alopecia (grade), all rats ([2]; doxorubicin, paclitaxel and etoposide regimen, after the first round): did not exhibit any signs of alopecia
effect of calcitriol on cell growth ([3]; PaCa2, wide range of calcitriol concentrations): no significant growth promoting or growth inhibiting effects; also recorded: not responsive
effect of calcitriol on the cytotoxic effect of Doxorubicin ([3]; PaCa-2): did not appear to appreciably alter
5-FU ED50 curve with vs without calcitriol ([3]; PaCa-2, 0.1 μg/mL calcitriol): not significantly different
response to doxorubicin, cisplatin and erlotinib after calcitriol exposure ([3]; PaCa-2, 0.1 μg/mL calcitriol for two passages): did not alter
protection from etoposide-induced alopecia ([4]; 0.1 μg of calcitriol topically for 6 hours, daily for 6 days): partial localized protection
protection from cyclophosphamide-induced alopecia ([4]; 0.3 μg calcitriol topically): full body protection
protection from etoposide-induced alopecia ([4]; 0.3 μg calcitriol topically): total body protection
protection from CTX-doxorubicin combination chemotherapy-induced alopecia [4, 7]: protects
protection from CTX-induced alopecia in rats injected with MIAC51 [4, 7]: protects
protection from cyclophosphamide (CTX)-induced alopecia [4, 7]: protects
protection from CIA in rats receiving etoposide ([4]; Sprague Dawley rats, topical formulation, two doses): protects from chemotherapy-induced alopecia (CIA) in a dose-dependent manner
protection against CIA in neonatal rat ([4]; about 0.2 μg (100 μL of 2 μg/mL topical solution)): protective
daily application prior to commencement of chemotherapy required to see any protective effect ([4]; rat model): at least four days
protection with 5 days of application prior to chemotherapy ([4]; rat model): moderate protection
chemotherapy induced alopecia [5]: diminished chemotherapy induced alopecia
response to doxorubicin, cisplatin and erlotinib after calcitriol exposure [6]: did not alter
